According to patent EP1691802B1, “METHODS FOR THE AMELIORATION OF ENVIRONMENTAL OXIDANT STRESS AND THE REGULATION OF BENEFICIAL GENES” (The Ester C Company, priority 2003, dated 2005):

Tested on: white blood cells
Parameters: species or system human
Conditions: in vivo, po
Experimental: Three vitamin C preparations and a placebo were tested to determine white blood cell bioavailability and pharmacokinetics in a double-blind, randomized, crossover study in human subjects. The three vitamin C and placebo compositions were • "Test A": ascorbic acid USP • "Test B": a mineral ascorbate (calcium ascorbate) + vitamin C metabolites (principally calcium threonate), in which the metabolites are produced in situ by a process such as disclosed in US Patent 4,822,816 • "Test C": a mineral ascorbate (calcium ascorbate) + vitamin C metabolites (calcium threonate), manufactured by adding calcium threonate to calcium ascorbate. • "Test D": placebo All three vitamin C compositions were standardized to 1000mg vitamin C equivalent per dose tablets.
A total of 15 subjects (all male between the ages of 21 and 50) were divided into three groups of five and were entered into a four-way crossover design study to minimize inter-subject variability, i.e., in which the subjects act as their own controls. […]
Vitamin C levels of the urine, plasma and white blood cells were determined by HPLC. The areas under the curve (AUC) for the ascorbic acid levels detected in white cells, plasma and urine was determined for each group using the trapezoidal rule (Selby, 1979). The data and the standard deviation was analyzed using repeated-measures analysis of variance ([…]). […]

levels of white cell vitamin C in smokers: lowest levels
Structure (SMILES): O=C1O[C@H]([C@@H](O)CO)C(O)=C1O [Test A, ascorbic acid]
